Drawing on patent publication US6348477B1, “Anti-herpesvirus compounds and methods for identifying, making and using same” (Boehringer Ingelheim(Canada) Ltd., priority 1995, dated 2002), this text covers EC50 for one compound.

The subject of experiment [1] is HCMV (strain AD169). Kind of experiment: Inhibition of HCMV replication, plaque reduction assay (PRA, Hs-68 cells). The class given is cell-based, human cytomegalovirus. The conditions noted are these: Human betaherpesvirus 5, AD169, Hs68; Group 1 Table 1; read-out: PRA CMV EC50. The method, boiled down:
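Hs-68 cells infected with about 50 PFU HCMV AD169 (2 h adsorption, 37°), then incubated with compound in 5% inactivated-FBS medium for 4 days, refed with fresh compound, 4 more days. Crystal violet-stained plaques counted; EC50 from percent plaque reduction versus untreated.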
For orientation: Plaque reduction counts the foci of infection that form in a cell layer.

Experiment [2] has as its system HCMV (strain AD169). The experiment in a line: Inhibition of HCMV replication, ELISA assay (Hs-68 cells, p28). The class given is cell-based, human cytomegalovirus. The conditions noted are these: Human betaherpesvirus 5, AD169, Hs68; Group 1 Table 1; read-out: ELISA CMV EC50. The method, boiled down: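 Hs-68 cells infected with HCMV AD169 at MOI 0.01 PFU/cell (2 h adsorption), washed, then incubated with compound for 8 days at 37° in DMEM/5% FBS. Late protein p28 detected in fixed cells by mAb UL99 ELISA (HRP/OPD, 450 nm). EC50 from % inhibition of replication.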

On to `Nc1nc(-c2ccc(NC(=O)CN(CCc3ccccc3)C(=O)c3cccnc3)cc2)cs1` [Example 67], for which the EC50 – broadly, the concentration at which the effect is half-maximal – in experiment [1] was found to be 93 µM; in experiment [2], 2.1 µM.
